Assay results taken from PubChem BioAssay (NCI).
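Briefly, cells in 96-well plates were exposed to five compound concentrations for 48 h, and endpoints were estimated by linear interpolation. GI50 = concentration required for 50% inhibition of growth. At the TGI there is no net growth.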

Tests used:
Experiment in all cases: DTP human tumour cell line panel, 48 h
OVCAR-5 ovarian = test system: OVCAR-5 ovarian
MALME-3M melanoma = test system: MALME-3M melanoma
A549 NSCLC = test system: A549 NSCLC
HCT-15 colon = test system: HCT-15 colon
NCI-H522 lung = test system: NCI-H522 lung
ACHN renal = test system: ACHN renal
LOX IMVI melanoma = test system: LOX IMVI melanoma
MDA-N = test system: MDA-N
MDA-MB-435 = test system: MDA-MB-435
HT29 colon = test system: HT29 colon
COLO 205 colon = test system: COLO 205 colon
MDA-MB-231 breast = test system: MDA-MB-231 breast
UACC-62 melanoma = test system: UACC-62 melanoma
K-562 leukemia = test system: K-562 leukemia
NCI-H226 lung = test system: NCI-H226 lung
SR leukemia = test system: SR leukemia
SK-MEL-5 melanoma = test system: SK-MEL-5 melanoma
M14 melanoma = test system: M14 melanoma
T-47D breast = test system: T-47D breast
HS 578T breast = test system: HS 578T breast
SK-OV-3 ovarian = test system: SK-OV-3 ovarian
OVCAR-8 ovarian = test system: OVCAR-8 ovarian
OVCAR-4 ovarian = test system: OVCAR-4 ovarian
HL-60(TB) leukemia = test system: HL-60(TB) leukemia
EKVX NSCLC = test system: EKVX NSCLC
SK-MEL-2 melanoma = test system: SK-MEL-2 melanoma
TK-10 renal = test system: TK-10 renal
PC-3 prostate = test system: PC-3 prostate
U251 CNS = test system: U251 CNS
SNB-75 CNS = test system: SNB-75 CNS
NCI-H460 lung = test system: NCI-H460 lung
SW-620 colon = test system: SW-620 colon
SF-268 CNS = test system: SF-268 CNS
SF-539 CNS = test system: SF-539 CNS
DU-145 prostate = test system: DU-145 prostate
OVCAR-3 ovarian = test system: OVCAR-3 ovarian
CCRF-CEM leukemia = test system: CCRF-CEM leukemia
SF-295 CNS = test system: SF-295 CNS
MOLT-4 leukemia = test system: MOLT-4 leukemia
IGROV1 ovarian = test system: IGROV1 ovarian
HCC-2998 colon = test system: HCC-2998 colon
NCI/ADR-RES ovarian = test system: NCI/ADR-RES ovarian
MCF7 breast = test system: MCF7 breast
KM12 colon = test system: KM12 colon
SN12C renal = test system: SN12C renal
HOP-62 NSCLC = test system: HOP-62 NSCLC
CAKI-1 renal = test system: CAKI-1 renal
HCT-116 colon = test system: HCT-116 colon
NCI-H23 lung = test system: NCI-H23 lung
SNB-19 CNS = test system: SNB-19 CNS
BT-549 breast = test system: BT-549 breast
UACC-257 melanoma = test system: UACC-257 melanoma
RPMI-8226 leukemia = test system: RPMI-8226 leukemia
786-0 renal = test system: 786-0 renal
HOP-92 NSCLC = test system: HOP-92 NSCLC

CN(C)c1ccccc1[CH2][Ga]([Cl])[CH2]c1ccccc1N(C)C
GI50 (OVCAR-5 ovarian): 1350 nM
TGI (OVCAR-5 ovarian): 2730 nM
GI50 (MALME-3M melanoma): 1750 nM
TGI (MALME-3M melanoma): 3320 nM
GI50 (A549 NSCLC): 1440 nM
TGI (A549 NSCLC): 2940 nM
GI50 (HCT-15 colon): 698 nM
TGI (HCT-15 colon): 2330 nM
GI50 (NCI-H522 lung): 1410 nM
TGI (NCI-H522 lung): 3450 nM
GI50 (ACHN renal): 1430 nM
TGI (ACHN renal): 3120 nM
GI50 (LOX IMVI melanoma): 1130 nM
TGI (LOX IMVI melanoma): 3180 nM
GI50 (MDA-N): 1660 nM
TGI (MDA-N): 3080 nM
GI50 (MDA-MB-435): 1610 nM
TGI (MDA-MB-435): 3120 nM
GI50 (HT29 colon): 583 nM
TGI (HT29 colon): 2820 nM
GI50 (COLO 205 colon): 1040 nM
TGI (COLO 205 colon): 2360 nM
GI50 (MDA-MB-231 breast): 1310 nM
TGI (MDA-MB-231 breast): 2710 nM
GI50 (UACC-62 melanoma): 717 nM
TGI (UACC-62 melanoma): 2080 nM
GI50 (K-562 leukemia): 1460 nM
TGI (K-562 leukemia): 4460 nM
GI50 (NCI-H226 lung): 537 nM
TGI (NCI-H226 lung): 1950 nM
GI50 (SR leukemia): 1230 nM
TGI (SR leukemia): 4690 nM
GI50 (SK-MEL-5 melanoma): 1220 nM
TGI (SK-MEL-5 melanoma): 2490 nM
GI50 (M14 melanoma): 1300 nM
TGI (M14 melanoma): 2850 nM
GI50 (T-47D breast): 1390 nM
TGI (T-47D breast): 3780 nM
GI50 (HS 578T breast): 1280 nM
TGI (HS 578T breast): 5790 nM
GI50 (SK-OV-3 ovarian): 1710 nM
TGI (SK-OV-3 ovarian): 3800 nM
GI50 (OVCAR-8 ovarian): 1470 nM
TGI (OVCAR-8 ovarian): 3230 nM
GI50 (OVCAR-4 ovarian): 1240 nM
TGI (OVCAR-4 ovarian): 3070 nM
GI50 (HL-60(TB) leukemia): 2700 nM
TGI (HL-60(TB) leukemia): 5360 nM
GI50 (EKVX NSCLC): 794 nM
TGI (EKVX NSCLC): 2240 nM
GI50 (SK-MEL-2 melanoma): 1130 nM
TGI (SK-MEL-2 melanoma): 2870 nM
GI50 (TK-10 renal): 2160 nM
TGI (TK-10 renal): 4700 nM
GI50 (PC-3 prostate): 1740 nM
TGI (PC-3 prostate): 3630 nM
GI50 (U251 CNS): 1160 nM
TGI (U251 CNS): 2410 nM
GI50 (SNB-75 CNS): 1410 nM
TGI (SNB-75 CNS): 2740 nM
GI50 (NCI-H460 lung): 1760 nM
TGI (NCI-H460 lung): 3580 nM
GI50 (SW-620 colon): 1760 nM
TGI (SW-620 colon): 3920 nM
GI50 (SF-268 CNS): 1770 nM
TGI (SF-268 CNS): 3300 nM
GI50 (SF-539 CNS): 1700 nM
TGI (SF-539 CNS): 3500 nM
GI50 (DU-145 prostate): 1610 nM
TGI (DU-145 prostate): 3200 nM
GI50 (OVCAR-3 ovarian): 1400 nM
TGI (OVCAR-3 ovarian): 3650 nM
GI50 (CCRF-CEM leukemia): 399 nM
TGI (CCRF-CEM leukemia): 4820 nM
GI50 (SF-295 CNS): 964 nM
TGI (SF-295 CNS): 2480 nM
GI50 (MOLT-4 leukemia): 927 nM
TGI (MOLT-4 leukemia): 5370 nM
GI50 (IGROV1 ovarian): 1290 nM
TGI (IGROV1 ovarian): 2730 nM
GI50 (HCC-2998 colon): 1230 nM
TGI (HCC-2998 colon): 2880 nM
GI50 (NCI/ADR-RES ovarian): 1870 nM
TGI (NCI/ADR-RES ovarian): 4220 nM
GI50 (MCF7 breast): 954 nM
TGI (MCF7 breast): 2670 nM
GI50 (KM12 colon): 635 nM
TGI (KM12 colon): 2240 nM
GI50 (SN12C renal): 1310 nM
TGI (SN12C renal): 2580 nM
GI50 (HOP-62 NSCLC): 1210 nM
TGI (HOP-62 NSCLC): 2570 nM
GI50 (CAKI-1 renal): 1580 nM
TGI (CAKI-1 renal): 3940 nM
GI50 (HCT-116 colon): 833 nM
TGI (HCT-116 colon): 2170 nM
GI50 (NCI-H23 lung): 595 nM
TGI (NCI-H23 lung): 2060 nM
GI50 (SNB-19 CNS): 1440 nM
TGI (SNB-19 CNS): 2860 nM
GI50 (BT-549 breast): 1830 nM
TGI (BT-549 breast): 3290 nM
GI50 (UACC-257 melanoma): 1510 nM
TGI (UACC-257 melanoma): 3050 nM
GI50 (RPMI-8226 leukemia): 651 nM
TGI (RPMI-8226 leukemia): 3630 nM
GI50 (786-0 renal): 1380 nM
TGI (786-0 renal): 2800 nM
GI50 (HOP-92 NSCLC): 416 nM
TGI (HOP-92 NSCLC): 1580 nM
